Test results: patent publication US20100310542A1, “Pharmaceutical Compositions for treating wouds and related methods” (HEALOR LTD., priority 2007, published 2010)
* marks the point of attachment. Myristoyl = CCCCCCCCCCCCCC(=O)*

Experiments:
keratin 1 = keratin 1 expression by Western blot in keratinocytes; format: cell-based, mice; conditions: visfatin 0.0001 μg/ml or L-alpha 100 ng/ml, 24 hours after calcium-induced differentiation
Description: Medium A and B are both EMEM eagle's minimal essential medium from Biological Industries (Israel) containing 8% CHELEX™ treated fetal bovine serum. CHELEX™ is a strong chelator which binds free Ca^2+ and Mg^2+ ions to prevent these ions from being bioavailable to the cultured cells.
Primary skin keratinocytes isolated from the tails of adult mice (7-10 months up to 2 years) were maintained in medium A (MEM) as described above. After 5 days in (medium A), the growth medium in half of the cultured plates was replaced with medium B (as described above)
Next visfatin or L-alpha were each individually added to cells cultured in medium A (FIG. 19A) and cells cultured in medium B (FIG. 19B) as indicated in FIG. 19. The final concentration in the culture medium of visfatin was 0.0001 μg/ml visfatin. The final concentration in the culture medium of L-alpha was 100 ng/ml.
Cell differentiation was induced by elevating calcium from 0.05 mM to 0.12 mM as described above. Twenty-four (24) hours after differentiation cells were harvested and Western Blot analysis was performed. […] Keratin 1 expression was then quantified using standard densitometric methods […]
Cell differentiation was then induced by elevating calcium levels in the culture medium from 0.05 mM to 0.12 mM. […] Expression was assessed using standard Western blotting and densitometry techniques.

PKCα = PKCα activity assay in keratinocytes overexpressing PKCα; format: cell-based, murine; conditions: Formulation A; peptide 1 μM for 15 minutes; PKCα overexpressing cells; relative to controls
Protocol: Transduction of keratinocytes with PKC isoform genes: The culture medium was aspirated and keratinocyte cultures were infected with PKC recombinant adenoviruses encoding specific PKC isoforms such as PKCα for one hour. The cultures were then washed twice with MEM and re-fed. Ten hours post-infection cells were transferred to serum-free low Ca^2+-containing MEM for 24 hours.
PKC activity: Specific PKC activity was determined in freshly prepared immunoprecipitates from keratinocyte cultures following appropriate treatments. These lysates were prepared in RIPA buffer without NaF. Activity was measured using the SignaTECT Protein Kinase C Assay System (Promega, Madison, Wis., USA) according to the manufacturer's instructions. PKCα pseudosubstrate was used as the substrate in these studies.
PKC immunokinase assay: Purified and standardized PKC isozymes were kindly supplied by Dr. P. Blumberg (NCl, NIH, U.S.) and Dr. Marcello G. Kazanietz (University of Pennsylvania, School of Medicine). Primary keratinocytes were harvested in 500 μl […] (1% Triton-X 100, 10 μg/ml aprotinin and leupeptin, 2 μg/ml pepstatin, 1 mM PMSF, 1 mM EDTA, 200 μM […], 10 mM NaF in 1×PBS). Lysates were incubated at 4° C. for 30 minutes, and spun at 16,000×g for 30 minutes at 4° C. Supernatants were transferred to a fresh tube. […]

[1] = system: full thickness skin incisions; assay: severe inflammatory burden at incision wounds in mice; format: in vivo, C57BL/6J mice; conditions: peptide 1 μM daily, 7 days
Protocol: Full thickness (20 mm long) skin incisions were performed on the upper back of anesthetized C57BL/6J mice (6 mice per group). Following incisions, wounds were treated daily with Myr-pseudosubstrate PKCα peptide, 1 μM applied directly on the wounds in the various formulations (Formulation A-C) described above.
(§1) After 7 days, wounds were excised and subjected to histology and immunohistochemistry. Inflammatory burden was considered severe when at least 2 of the 3 following parameters were present at the wound gap: (1) Abscess formation at the wounded area, (2) excessive leukocytosis (>100 cells in a fixed field×200), (3) high WBC/RBC ratio in blood vessels where >20% of WBC content within the blood vessels is shown in a fixed field (×200). Results are summarized and presented as percent of wounds with severe inflammation relative to the number of wounds in the group.
as §1, with “Full thickness (20 mm long) skin incisions were performed on the upper back of anesthetized C57BL/6J mice (6 mice per group). Following incision, wounds were treated daily with PKCα inhibitor (Pseudosubstrate PKCα peptide, 1 μM) applied directly to the wounds in the various formulations (Formulation A-C) described above. After” for “After”, “per total” for “relative to the number of”

[2] = system: full thickness skin incisions; assay: incision wound healing in mice, percent of healed wounds; format: in vivo, C57BL/6J mice; conditions: agent alone, all formulations (A-C); daily, 7 days; vs groups treated with formulations alone; listed as pseudosubstrate peptide
Protocol: In vivo incision wound generation and inducement of inflammation: Full thickness (20 mm long) skin incisions were performed on the upper back of anesthetized C57BL/6J mice (6 mice per group). […] the incision, wounds were treated daily with insulin (10^−6 M; 0.1 units/ml); pseudosubstrate PKCα peptide, 1 μM (PKCα inhibitor); or Insulin+PKCα inhibitor (Myr-pseudosubstrate PKCα peptide, 1 μM and insulin 0.1 units) applied directly on the wounds in the various formulations (Formulations A-C) as described above. After 7 days, wounds were excised and the percentage of healed wounds was evaluated by examining the morphology and histology of the wounds. Results are presented as percent of healed wounds relative to the total number of wounds per group. […] Full thickness (20 mm long) skin incisions were performed on the upper back of anesthetized C57BL/6J mice (6 mice per group). […] After 7 days, wounds were excised and the percentage of healed wounds was evaluated by examining the morphology and histology of the wounds. […]

Row | Compound | expression of keratin 1 (keratin 1; medium A (no KCl)) | expression of keratin 1 (keratin 1; medium B (KCl 0.4 mg/ml)) | inhibition of PKCα activity (PKCα) | severe inflammation (percent of wounds with severe inflammation) ([1]; Formulation A) | severe inflammation (percent of wounds with severe inflammation) ([1]; Formulation B) | severe inflammation (percent of wounds with severe inflammation) ([1]; Formulation C) | healing of wounds (percent of healed wounds) [2]
1 | CCCCCCCCCCCCCCCC(=O)OC[C@H](COP(=O)(O)OC1C(O)C(OP(=O)(O)O)C(OP(=O)(O)O)C(OP(=O)(O)O)C1O)OC(=O)CCCCCCCCCCCCCCC.N.N.N.N.N.N.N (stereo partly drawn) [L-alpha, L-α-Phosphatidylinositol-3,4,5-trisphosphate, Dipalmitoyl-, Heptaammonium Salt] | decreased relative to the control sample | not significantly altered |  |  |  |  | 
2 | Myr*-Phe-Ala-Arg-Lys-Gly-Ala-Leu-Arg-Gln-OH (Myristoyl-FARKGALRQ-OH; SMILES CCCCCCCCCCCCCC(=O)N[C@@H](Cc1ccccc1)C(=O)N[C@@H](C)C(=O)N[C@@H](CCCNC(=N)N)C(=O)N[C@@H](CCCCN)C(=O)NCC(=O)N[C@@H](C)C(=O)N[C@@H](CC(C)C)C(=O)N[C@@H](CCCNC(=N)N)C(=O)N[C@@H](CCC(N)=O)C(=O)O) [PKCα inhibitor, myristoylated peptide corresponding to the pseudosubstrate region of PKCα, CAS 147217-25-2] |  |  | able to significantly inhibit PKCα activity | significant reduction in severe inflammation | No reduction in inflammatory burden | No reduction in inflammatory burden | did not promote wound healing efficacy
